According to patent US11246856B2, “Methods of treating resistant cancers” (University of Maryland, Baltimore, priority 2017, dated 2022):
“Also recorded” adds a separate entry of the source.

Legend:
[1] = test system: YAP1, TAZ and TEAD in A375 and A375-PLX-R cells; assay: YAP1/TAZ/TEAD mRNA and protein level after verteporfin, monolayer cells; format: cell-based
Experimental: (§1) Equivalent amounts of protein were electrophoresed on denaturing and reducing 10% polyacrylamide gels and transferred to nitrocellulose membrane. The membrane was blocked by 5% nonfat dry milk for one hour and incubated with 1:1000 primary antibody in 5% nonfat dry milk. Blots were rinsed in TBS-T and then incubated with secondary antibodies (1:5000) for 2 h. Secondary antibody binding was visualized using ECL Prime (Amersham) chemiluminescence detection technology. For immunostaining, cells were harvested, suspended in growth medium, and plated in LAB-TEK II Chamber Slide System. After 24 h, the cells were fixed with 4% paraformaldehyde at room temperature for 15 min, washed three with phosphate-buffered saline, in 0.1% Triton X-100 for 15 min, washed with phosphate-buffered saline, and blocked for 1 h with phosphate-buffered saline containing 7.5% fetal calf serum. Primary antibodies were added, and the slides incubated overnight at 4° C. Cells were then washed three times with phosphate-buffered saline and incubated 1 h with the appropriate Alexa Flour fluorescence probe-conjugated secondary antibody. After additional washing, the cells were stained with DAPI for 10 min prior to imaging.
Total RNA was isolated using Illustra RNAspin mini kit (GE Healthcare), and 1 μg of RNA was used for cDNA synthesis. Gene expression was measured by real time PCR using Light Cycler 480 SYBR Green I Master Mix (04-707 516 001) from Roche Diagnostics (Indianapolis, Ind.). The signals were normalized using cyclophilin A control primers. The gene specific primers used for detection of mRNA levels were as follows: cyclophilin A (forward, 5′-[…] (SEQ ID NO: 3); reverse, 5′-[…] (SEQ ID NO: 4)), TAZ (forward, 5′-GTATCCCAGCCAATC TCG (SEQ ID NO: 5); reverse, 5′-TTCTGAGTGGGGTGGTTC (SEQ ID NO: 6)) and YAP1 (forward, 5′-[…] (SEQ ID NO: 7); reverse, 5′-[…], (SEQ ID NO: 8)) (11).
To understand the mechanism of verteporfin action, monolayer A375 and A375-PLX-R cells were treated with […] verteporfin for 24 h and the impact on YAP1/TAZ mRNA and protein level was monitored. […] The proteasome is known to regulate YAP1/TAZ level (29,30) and so whether the proteasome was responsible for the observed reductions was examined.

pre-formed spheroids = assay: Treatment of pre-formed spheroids; format: cell-based
Experimental: Cancer cells were maintained under attached conditions in growth media containing DMEM (Invitrogen, Frederick, Md.) supplemented with 4.5 mg/ml D-glucose, […] L-glutamine, 100 mg/ml sodium pyruvate, and 5% fetal calf serum. For spheroid culture, monolayer cultures were dissociated with 0.25% trypsin and the cells were collected by centrifugation, and resuspended in spheroid media, consisting of DMEM/F12 (1:1) (DMT-10-090-CV, Mediatech INC, Manassa, Va.) containing 2% B27 serum-free supplement (17504-044, Invitrogen, Frederick, Md.) 20 ng/ml EGF (E4269, Sigma, St. Louis), 0.4% bovine serum albumin (B4287, Sigma) and […] insulin (19278 Sigma, St. Louis, Mo.) and plated at 40,000 cells per 9.6 cm^2 well in six well ultra-low attachment Costar cluster dishes (4371, Corning, Tewksbury, Mass.). Parallel cultures were plated in spheroid media on conventional plastic dishes for growth as monolayer cultures.
Identification of agents that suppress survival of PLX4032-resistant cells, or re-sensitize these cells to PLX4032, is an important goal. […] YAP1 interacts with TEAD transcription factors to drive gene expression (6,28) and a small molecular inhibitor called verteporfin has been reported to disrupt YAP1/TEAD interaction by binding to YAP1 and altering its structure (6,16). The impact of verteporfin treatment on spheroid formation and matrigel invasion in PLX4032 sensitive and resistant MCS cells was examined.

[2] = test system: melanoma cell tumor formation (MCS cells); assay: Tumor xenograft assay, verteporfin alone (FIGS. 6D-6F); format: in vivo, NSG mice; conditions: verteporfin intraperitoneal, tumor cell line not stated
Experimental: Cells were grown for ten days as spheroids and a single cell suspension, prepared by trypsin digestion, was resuspended in phosphate buffered saline containing 30% Matrigel and 100 μl containing 0.1 million cells were injected subcutaneously at the two front flanks of NOD/scid/IL2 receptor gamma-knockout mice (NSG mice) using a 26.5 gauge needle. PLX4032 was dissolved in phosphate-buffered saline containing 10% DMSO and delivered at 20 mg/kg by oral gavage in […] three times per week (M/W/F). Verteporfin was dissolved in phosphate-buffered saline containing 10% DMSO and 0-100 mg/kg was delivered by intraperitoneal injection of […] three times per week (M/W/F). Five mice were used per group (two tumors per mouse) and treatment was initiated two days after tumor cell injection. Tumor growth was monitored by measuring tumor diameter and calculating tumor volume using the formula, volume=4/3π×(diameter/2)^3. Mice were euthanized by injection of 250 μl of a 2.5% stock of Avertin per mouse followed by cervical dislocation of the neck. Tumor samples were harvested to prepare extract for immunoblot and sections for immunostaining. These experiments were reviewed and approved by the University of Maryland-Baltimore Institutional Animal Care and Use Committee. The plotted values are mean±SEM and significance were determined using the students t-test.

tumor-derived A375 cells = assay: Matrigel invasion of tumor-derived A375 cells; format: cell-based; conditions: sensitive (A375) cells, invasion assayed without drug, FIG. 6G
Experimental: (§2) Tumors were initiated and treated with PLX4032 or verteporfin as above. At 4 weeks, the tumors were removed, mechanically dissociated and dispersed as single cell suspensions with 0.25% trypsin for 10 min and plated as monolayer cultures. After 24 h, the cells were harvested and seeded at 25,000 cells/well atop a 0.1 ml matrigel layer in Millicell (1 cm diameter, […]) chambers in the presence of a serum gradient (38). After 18 h, the membranes were stained with DAPI and the nuclei of migrated cells were visualized by inverted fluorescence microscopy (38).

A375 cells [3] = assay: Immunoblot of signaling, cell cycle and apoptosis markers in A375 cells; format: cell-based
Experimental: as §1

[4] = test system: tumor-derived A375-PLX-R cells; assay: Matrigel invasion of tumor-derived A375-PLX-R cells; format: cell-based; conditions: resistant (A375-PLX-R) cells, invasion assayed without drug, FIG. 6G
Experimental: as §2

A375 cells [5] = assay: Immunofluorescence of YAP1/TAZ subcellular distribution; format: cell-based; conditions: control versus PLX4032-treated A375 cells, FIG. 2D
Experimental: as §1

verteporfin
level of YAP1 or TAZ mRNA ([1]; 1 mM verteporfin, 24 h, monolayer, FIG. 4F): did not impact | YAP1 and TAZ protein levels ([1]; 1 mM verteporfin, 24 h, monolayer, FIG. 4G): reduced | TEAD transcription factor levels ([1]; verteporfin treatment, FIG. 4H): reduced | reduction of spheroid number/integrity (pre-formed spheroids; 20 μM verteporfin, 3-day treatment, FIG. 4C legend): 30-50% | pre-formed spheroids after prolonged treatment (pre-formed spheroids; prolonged verteporfin treatment (not shown)): complete destruction | reduction of spheroid number/integrity (pre-formed spheroids; spheroids formed for 8 d, 3D treatment, FIG. 4C): 30-50% | YAP1 and TAZ level in tumors ([2]; FIG. 6F): suppressed | tumor size / tumor formation ([2]; FIGS. 6D-6E): reduced

CCCS(=O)(=O)Nc1ccc(F)c(C(=O)c2c[nH]c3ncc(-c4ccc(Cl)cc4)cc23)c1F [PLX4032]
matrigel invasion of tumor-derived cells after in vivo treatment (tumor-derived A375 cells): does not suppress | apoptosis (cleaved PARP accumulation, procaspase 8 and 9 levels) (A375 cells [3]): enhances | cyclin B and cyclin A level (A375 cells [3]; FIGS. 3A-3B): reduced | p21Cip1 and p27 level (A375 cells [3]; FIGS. 3A-3B): increased | ERK1/2 signaling / phosphorylation (A375 cells [3]; FIGS. 3A-3B, 3F): suppressed; also recorded: reduced | matrigel invasion of tumor-derived cells after in vivo treatment [4]: does not suppress | YAP1 intracellular distribution (A375 cells [5]): no major change
